Reference: patent US20260217691A1, “FOXM1 INHIBITORS AND THEIR USE IN TREATING CANCERS” (THE BOARD OF TRUSTEES OF THE UNIVERSITY OF ILLINOIS, priority 2022, published 2026)
“Also recorded” adds a separate entry of the source.

Experiments:
FOXM1 [1] = molecular target: T1, FOXM1 (Homo sapiens, UniProt Q08050); assay: FOXM1 protein levels by immunoblotting in solid cancer cell lines
T1 sequence (Q08050 1-763): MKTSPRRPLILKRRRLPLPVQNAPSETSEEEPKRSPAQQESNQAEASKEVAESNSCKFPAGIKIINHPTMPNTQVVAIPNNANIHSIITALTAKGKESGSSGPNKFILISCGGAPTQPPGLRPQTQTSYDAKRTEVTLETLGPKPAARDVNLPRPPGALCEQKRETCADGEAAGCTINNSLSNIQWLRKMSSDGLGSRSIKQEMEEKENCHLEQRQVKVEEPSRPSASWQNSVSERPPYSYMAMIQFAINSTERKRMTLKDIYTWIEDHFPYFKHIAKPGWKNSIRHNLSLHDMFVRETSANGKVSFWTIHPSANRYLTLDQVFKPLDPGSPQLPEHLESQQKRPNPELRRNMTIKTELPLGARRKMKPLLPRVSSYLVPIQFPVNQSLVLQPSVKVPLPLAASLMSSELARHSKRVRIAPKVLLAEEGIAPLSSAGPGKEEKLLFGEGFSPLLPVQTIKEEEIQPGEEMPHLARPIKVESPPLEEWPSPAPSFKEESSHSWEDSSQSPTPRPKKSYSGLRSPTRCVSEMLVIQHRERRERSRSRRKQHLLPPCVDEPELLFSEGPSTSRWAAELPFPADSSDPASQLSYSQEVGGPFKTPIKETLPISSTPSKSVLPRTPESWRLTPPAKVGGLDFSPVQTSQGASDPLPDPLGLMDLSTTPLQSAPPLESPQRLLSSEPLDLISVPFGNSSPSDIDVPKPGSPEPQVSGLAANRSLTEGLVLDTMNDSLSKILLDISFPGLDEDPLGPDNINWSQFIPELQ
Experimental: Cell culture: Human cell lines LNCaP and 22Rv1 (human prostate carcinoma), OVCAR8 and ES-2 (High-grade serous ovarian cancer, HGSOC), HCT-116 and HCT-FET (human colorectal carcinoma), HCC-1143 (triple negative breast cancer (TNBC), TAMR (Tamoxifen resistant MCF7) human breast cancer, were provided from various investigators. LNCaP and 22Rv1 cell lines were cultured in RPMI-1640 with 2 mM L-Glutamine (Gibco; Thermo Fisher Scientific, Waltham, MA, USA). HCC-1143 cell lines were cultured in Iscove's Modified Dulbecco Medium (IMDM) with 2 mM L-Glutamine (Gibco; Thermo Fisher Scientific). OVCAR-8, ES-2, HCT-116, and HCT-FET cell lines were cultured in Dulbecco's Modified Eagle Medium (DMEM) with 4.5 g/L glucose and 4 mM L-Glutamine (Gibco; Thermo Fisher Scientific). For all cell lines, the growth media was supplemented with 10% Foetal Bovine Serum (FBS), penicillin (100 U/mL), and 100 μg/mL streptomycin (Gibco; Thermo Fisher Scientific). TAMR cells were routinely cultured in DMEM/F12 medium without phenol red (Gibco; Thermo Fisher Scientific), containing 1% charcoal-striped FBS, 2.5 mM L-Glutamine (Thermo Fisher Scientific), 6 ng/mL insulin (Millipore Sigma) and 50 nM 4-hydroxytamoxifen (4-OHT; Millipore Sigma). All cell lines were grown and maintained at 37° C. in a humidified incubator with 5% CO2. Sub-confluent cultures (70-80%) were split 1:5 using 0.25% Trypsin/EDTA (Millipore Sigma).
Drug treatment of cultured cells: After harvesting, cells were counted in presence of Trypan Blue (Thermo Fisher Scientific) and seeded onto tissue culture plates to achieve ~50% confluency. The next day, treatment of cells was performed by aspirating the nonadherent cells and growth medium and replacing it with the fresh one containing selected concentrations of drugs. For Tamoxifen based studies, the nonadherent cells and growth media was aspirated and replaced with the DMEM supplemented with 4.5 g/L glucose and 4 mM L-Glutamine, 10% FBS, penicillin (100 U/mL), 100 μg/mL streptomycin, 10 nM estrogen, and selected concentrations of drugs. […] Post-treatment at selected times, the cells were harvested, washed with ice-cold PBS and used for protein or RNA purification as described below.
Protein immunoblotting: Total protein was extracted using ice-cold radio-immunoprecipitation assay (RIPA) buffer (Millipore Sigma) supplemented with Halt protease- and phosphatise-inhibitor cocktails (Fisher Scientific), 2 mM sodium orthovanadate (New England Biolabs, Inc., USA), and 5 mM sodium fluoride (Millipore Sigma) according to the manufacturer's protocol. Protein content in each sample was estimated using Bio-Rad Protein Assay (Bio-Rad, USA). Equal amounts of protein (20-30 μg) were separated on hand-cast SDS/PAGE (6-12%) mini-protein gels and transferred to 0.2 μm Immobilon-Psq polyvinylidene difluoride (PVDF) transfer membrane (Millipore Sigma). Membranes were blocked with 4% bovine serum albumin (BSA; Millipore Sigma) in TRIS-buffered saline (TBS) with 0.1% Tween-20 (TBS-T, Thermo Fisher Scientific) and probed overnight at 4° C. with the primary antibodies (FOXM1, Cell Signaling Technology (CST), Inc., USA; Cleaved Caspase-3, CST; β-actin, Thermo Fisher Scientific) diluted according to the manufacturer's protocol. […] After incubating membranes with the secondary antibodies, the membranes were then washed three times for 10 min each with TBST. Protein bands were developed using SuperSignal™ West Pico PLUS Chemiluminescent Substrate (Thermo Fisher Scientific) and detected using ChemiDoc Imaging System (Bio-Rad).

[2] = system: HCT-116 and HCT-FET cells; assay: Chemosensitization (caspase-3 cleavage) of colorectal cancer cells to 5′FU; type: cell-based, human
Experimental: FIG. 16. […] (A) Ovarian cancer (OVCAR-8 and ES-2) cells were treated with indicated concentrations of Doxorubicin (Doxo) alone or in combination with STL001 for 24 hrs. […] (C) colon cancer (HCT-116 and FET) cells were treated with indicated concentrations of 5′FU alone or in combination with STL001 for 24 hrs.

FOXM1 [3] = molecular target: T1, FOXM1; assay: FOXM1 protein levels by immunoblotting in leukemia/AML cell lines; type: cell-based; parameters: Total protein samples obtain from treated cells were analyzed for FOXM1 protein levels via immunoblotting; endogenous in cells; host or cells: KG-1, HL-60, K562, THP-1 leukemia cell lines; settings: for effect on FOXM1 protein levels suppressed by STL001 / FOXM1 level: KG-1 cells; for effect on FOXM1 protein levels suppressed by STL001: co-treatment with STL001, 24 h
Experimental: [a] Leukemia cells, KG-1, HL-60 and K562 were treated with increasing concentrations of STL427944 for 24 hrs. […] [b] THP1 and KG-1 cells were treated with indicated concentrations of venetoclax and STL427944 alone or in combination for 24 hrs. [c] KG-1 and K562 cells were treated with indicated concentrations of cytarabine and STL427944 alone or in combination for 24 hrs.
FIG. 8. STL427944 treatment of human leukemia cell lines suppress FOXM1 protein expression. (a) STL427944 treatment of human leukemia cell lines inhibit FOXM1 protein expression and sensitize cells to venetoclax treatment. […] (b) Stable shRNA-mediated FOXM1 knockdown prominently sensitizes KG-1 cells to cytotoxic effect of venetoclax. (c, d) combined treatment with STL427944 and venetoclax suppresses FOXM1 in KG-1 and THP-1 cells and synergistically promotes cytotoxic effects similarly to FOXM1 knockdown. Total protein was isolated from cells immediately after the treatment and analyzed via immunoblotting with FOXM1 antibodies). Apoptosis induction was estimated based on caspase-3 cleavage.
FIGS. 9A and 9B: Novel FOXM1 inhibitor STL001 sensitizes Leukemia cells to chemotherapy agents. [a] Structural formula of novel FOXM1 inhibitor STL001. [b] Leukemia cells, KG-1, HL-60, and K562 were treated with increasing concentrations of STL001 for 24 hrs. […] [c] KG-1 cells were treated with indicated concentrations of Laptomycin B, Chloroquine, and STL001 for 24 hrs. […] [d] KG-1, HL-60, and K562 cells were treated with indicated concentrations of venetoclax and STL001 alone or in combination for 24 hrs. [e] KG-1, HL-60, and K562 cells were treated with indicated concentrations of cytarabine and STL alone or in combination for 24 hrs.
FIGS. 13A-13H STL001 is a novel FOXM1 inhibitor that sensitizes leukemia cells to standard cytotoxic and bcl2 inhibitor therapies. FIG. 13A AML cell line KG-1 treated with precursor compound STL427944. FIG. 3B AML cell lines KG-1, HL-60, and K562 were treated with increasing concentrations of STL001 for 24 h. Total protein samples obtained from treated cells were analyzed for FOXM1 protein levels using immunoblotting; β-actin was used as the internal loading control. FIG. 13C KG-1, HL-60, and K562 cells were treated with indicated concentrations of venetoclax and STL001 alone or in combination for 24 h. FIG. 13D KG-1, HL-60, and K562 cells were treated with indicated concentrations of cytarabine and STL001 alone or in combination for 24 h. […] FIG. 13E KG-1 cells were treated with indicated concentrations of Leptomycin B, Chloroquine, and STL001 for 24 h. Total protein samples obtained from treated cells were analyzed for FOXM1 protein levels via immunoblotting; β-actin was used as an internal loading control. FIG. 13F KG-1 cell lines with shRNA knockdown of FOXM1 were treated with venetoclax and STL001 and compared to parental cells. FIG. 13G Real-time PCR-based expression profiling for canonical FOXM1 target genes was performed on primary AML mononuclear cells (n=5) treated ex vivo with STL001 5 μM for 24 h. Mean and standard error of the delta Ct for DMSO or treatment group are plotted for each gene. P-value is estimated by two-tailed paired t-test. Asterisks denote P<0.05. FIG. 13H Treatment of peripheral blood mononuclear cells with STL001 for 24 h followed by immunohistochemistry for FOXM1. Slides were scanned on an Aperio AT2 brightfield scanner and images were analyzed using HALO 2.0 software. Hematoxylin counterstain was used to segment nuclei within the ROIs and to establish an accurate cell count. Percent cells with nuclear FOXM1 expression compared between DMSO and STL001 treated cells. P-value is based on one-tailed paired t-test.

[4] = system: KG-1, HL-60, K562, THP-1 cells; type: cell-based
FOXM1 [5] = molecular target: T1, FOXM1; parameters: Total protein samples obtain from treated cells were analyzed for FOXM1 protein levels via immunoblotting; endogenous in cells; host or cells: KG-1, HL-60, K562, THP-1 leukemia cell lines; settings: cited from earlier work
FOXM1 [6] = molecular target: T1, FOXM1; parameters: Total protein samples obtain from treated cells were analyzed for FOXM1 protein levels via immunoblotting; endogenous in cells; settings: solid cancer cell lines; cited from earlier work
NPM1c mutant AML cells = settings: cited from earlier work
HCC-1143 cells = system: HCC-1143 cells
Experimental: (§1) FIG. 17. […] (A) Prostate cancer (22RV1 and LNCaP) cells were treated with indicated concentrations of paclitaxel alone or in combination with STL001 for 24 hrs. (B) Tamoxifen resistance MCF-7 breast cancer cells (TAM-R) were treated with indicated concentrations of Tamoxifen alone or in combination with STL001 for 24 hrs. In all cases, total protein samples were obtained from cells immediately after treatment and analyzed for FOXM1, cleaved caspase-3 levels via immunoblotting, β-actin was used as internal loading control (n=3). (C) Percent (%) dead cells in TAM-R cells treated with indicated concentrations of Tamoxifen alone or in combination with STL001 for 24 hrs. […] (F) HCC 143 cells with stable shRNA-mediated FOXM1 knockdown (KD) were treated with doxorubicin alone or in combination with STL001 for 24 hrs and compared to parental cells under the same treatment conditions. In all cases, total protein samples were obtained from cells immediately after treatment and analyzed for FOXM1, cleaved caspase-3 levels via immunoblotting, β-actin was used as internal loading control (n=3).
Stable FOXM1-expression knockdown in cancer cell: Cells were seeded on commercially available 12-well tissue culture plates to achieve ~40% confluency. […] Transduced cells were selected by their cultivation with puromycin (1.0 μg/mL) for 10 days and then maintained without puromycin as described above.

22RV1, LNCaP cells = system: 22RV1, LNCaP cells
Experimental: as §1

TAMR cells = type: cell-based
Experimental: as §1

In the case of `O=c1[nH]cc(F)c(=O)[nH]1` [5′FU, 5-fluorouracil], the “FOXM1 level, chemotherapeutic alone” value (FOXM1 [1]; HCT-116 and HCT-FET) is reported as “FOXM1 upregulation” and the “cell death, chemotherapeutic alone” value [2] is reported as “without evident cell death”.
For `CCN(CC)CCCC(C)Nc1ccnc2cc(Cl)ccc12` (stereo not drawn) [Chloroquine], the “effect on FOXM1 protein levels suppressed by STL001” value (FOXM1 [3]) was “rescued FOXM1 protein levels”.
With `CCC(=C/[C@H](C)C/C=C/C(C)=C/[C@@H](C)C(=O)[C@@H](C)[C@H](O)[C@@H](C)C/C(C)=C/C(=O)O)/C=C/[C@@H]1OC(=O)C=C[C@@H]1C` [Leptomycin B] the “effect on FOXM1 protein levels suppressed by STL001” value (FOXM1 [3]) was “rescued FOXM1 protein levels”.
For `O=C(Oc1cccc(/C=N/Nc2nc(Nc3ccccc3)nc(N3CCOCC3)n2)c1)c1ccco1` [STL427944], the “apoptosis (caspase-3 cleavage) in combination with venetoclax” value ([4]; KG-1/THP-1 cells) was “synergetic induction of apoptosis”, the “efficiency of sensitization to venetoclax treatment” value ([4]; KG-1 cells, versus shRNA FOXM1 knockdown) was “comparable to effects caused by shRNA-mediated FOXM1 knockdown” and the “effect on cytotoxicity of chemotherapeutic drugs (venetoclax, cytarabine)” value ([4]; THP1, KG-1, K562 cells, 24 hrs) was “enhances the cytotoxic effect of conventional chemotherapeutic drugs”. The “sensitivity of treated human cancer cells to platinum-based agents, 5-fluorouracil, taxanes” value (FOXM1 [5]; human cancer cells) was “increased sensitivity to cytotoxic effects of conventional chemotherapeutic treatments”, the “effect on FOXM1” value (FOXM1 [5]; relocalization of nuclear FOXM1 to cytoplasm, degradation by autophagosomes) was “selectively suppresses FOXM1” and the “concentration showing modest FOXM1 inhibition” value (FOXM1 [3]; AML cell line KG-1) was 25 µM. The “Potency in AML” value (FOXM1 [3]; estimated) was “uM range”, the FOXM1 protein levels (FOXM1 [3]; leukemia cell lines, increasing concentrations, 24 h) was “dose-dependent suppression of FOXM1 protein levels; also recorded: efficiently reduces FOXM1 protein levels” and the “concentrations showing modest FOXM1 suppression” value (FOXM1 [6]) was 25 to 50 µM. The “efficacy in knocking down FOXM1 expression” value (FOXM1 [1]; ovarian cancer cells (ES-2, OVCAR-8)) was “lesser efficacy as compared to STL001”.
In the case of `CC(C)N(C(=O)c1cc(F)ccc1Oc1cncnc1N1CC2(CCN(CC3CCC(NS(C)(=O)=O)CC3)CC2)C1)C(C)C` (stereo not drawn) [VTP-50469], the “leukemia development in the knock-in murine model” value (NPM1c mutant AML cells; knock-in murine model) is given as “prevent leukemia development” and the “effect on NPM1c mutant AML cells in xenografts” value (NPM1c mutant AML cells; oral inhibitor, xenografts) is given as “able to eradicate NPM1c mutant AML cells in xenografts”.
With `CC(C)C[C@H](NC(=O)[C@H](Cc1ccccc1)NC(=O)c1cnccn1)B(O)O` [bortezomib] the “apoptosis (caspase-3 cleavage) in combination with cytarabine” value ([4]; KG-1 cells) was “synergistic induction of apoptosis” and the FOXM1 level (FOXM1 [3]) was “down-regulation of FOXM1”.
For `COc1cccc2c1C(=O)c1c(O)c3c(c(O)c1C2=O)C[C@@](O)(C(=O)CO)C[C@@H]3O[C@H]1C[C@H](N)[C@H](O)[C@H](C)O1` [doxorubicin], the “cytotoxic effects, DNA-damaging agent alone” value (HCC-1143 cells) was “without showing prominent cytotoxic effects”, the “cellular FOXM1 protein, DNA-damaging agent alone” value (FOXM1 [1]; HCC-1143, sub-lethal concentrations) was “significantly higher levels of cellular FOXM1 protein” and the “FOXM1 protein abundance, chemotherapeutic alone” value (FOXM1 [1]; OVCAR-8, ES-2, sub-lethal concentrations) was “significant increase in FOXM1 protein abundance”.
For `CC(=O)O[C@H]1C(=O)[C@@]2(C)[C@H]([C@H](OC(=O)c3ccccc3)[C@]3(O)C[C@H](OC(=O)[C@H](O)[C@@H](NC(=O)c4ccccc4)c4ccccc4)C(C)=C1C3(C)C)[C@]1(OC(C)=O)CO[C@@H]1C[C@@H]2O` [paclitaxel], the “cytotoxic effects, chemotherapeutic alone” value (22RV1, LNCaP cells) was “without showing any cytotoxic effects” and the “cellular FOXM1 protein levels, chemotherapeutic alone” value (FOXM1 [1]; 22RV1, LNCaP, sublethal concentrations) was “prominent increase in cellular FOXM1 protein levels”.
With `CC/C(=C(\c1ccccc1)c1ccc(OCCN(C)C)cc1)c1ccccc1` [tamoxifen] the “cell death, tamoxifen alone” value (TAMR cells) was “without prominent cell death induction” and the “FOXM1 level, tamoxifen alone” value (FOXM1 [1]; TAMR cells) was “FOXM1 upregulation”.
For `C=C(NC(=O)C(=C)NC(=O)c1csc(C2=N[C@@H]3c4csc(n4)[C@H]4NC(=O)c5csc(n5)[C@H]([C@](C)(O)[C@@H](C)O)NC(=O)[C@H]5CSC(=N5)/C(=C/C)NC(=O)[C@H]([C@@H](C)O)NC(=O)c5csc(n5)[C@]3(CC2)NC(=O)[C@H](C)NC(=O)C(=C)NC(=O)[C@H](C)NC(=O)[C@H]([C@@H](C)CC)N[C@@H]2C=Cc3c([C@H](C)O)cc(nc3[C@H]2O)C(=O)O[C@@H]4C)n1)C(N)=O` [thiostrepton], the “apoptosis (caspase-3 cleavage) in combination with cytarabine” value ([4]; KG-1 cells) was “synergistic induction of apoptosis” and the FOXM1 level (FOXM1 [3]) was “down-regulation of FOXM1”.
